Data reported in PMC10385850, “Modified Hederagenin Derivatives Demonstrate Ex Vivo Anthelmintic Activity against Fasciola hepatica” (Pharmaceutics, 2023).
“Also recorded” adds a separate entry of the source.

Test system: F. hepatica newly excysted juveniles (NEJs), Italian strain
Experiment: Ex vivo screen against newly excysted juveniles (NEJs), phenotype and motility scoring
Assay type: cell-based, Fasciola hepatica
Conditions: 10 µM; for Average motility of 25 NEJs with 95% CI, 24 hours / Average motility of 25 NEJs with 95% CI, 48 hours / Average motility of 25 NEJs with 95% CI, 72 hours: motility score 1 good/normal to 5 no movement; for Average phenotype of 25 NEJs with 95% CI, 24 hours / Average phenotype of 25 NEJs with 95% CI, 48 hours / Average phenotype of 25 NEJs with 95% CI, 72 hours: ultrastructure score 1 normal to 6 dead or dissolved; for Activity against NEJs (first screen), in words: 72 h co-culture
Procedure: […] The NEJs were excysted from metacercariae and assayed at 10 μM (in 0.1% DMSO) final concentration alongside negative (0.1% DMSO) and positive (10 μM TCBZ, in 0.1% DMSO) controls as previously described. The MC and IVL compound series were screened separately.
The motility (1—good/normal; 2—moderate; 3—low; 4—very little; 5—no movement) and phenotypic (ultrastructural changes) scores were noted according to a previously described scoring matrix (Figure S1 and Table S2).

## CC1(C)CC[C@]2(N=C=O)CC[C@]3(C)C(=CCC4[C@@]5(C)CCC6OC(C)(C)OC[C@@]6(C)C5CC[C@]43C)C2C1 (stereo partly drawn) [MC015, (4aR,6aR,6bS,8aS,14bR)-8a-Isocyanato-2,2,4a,6a,6b,11,11,14b-octamethyl-4a,4b,5,6,6a,6b,7,8,8a,9, 10,11,12,12a,14,14a,14b,15,16,16a-eicosahydro-4H-piceno[3,4-d][1,3]dioxine]
  Average motility of 25 NEJs with 95% CI, 24 hours: 2.56 (2;3)
  Average phenotype of 25 NEJs with 95% CI, 24 hours: 2.24 (1.6;2.8)
  Average motility of 25 NEJs with 95% CI, 48 hours: 3.08 (2.4;3.6)
  Average phenotype of 25 NEJs with 95% CI, 48 hours: 2.84 (2;3.5)
  Average motility of 25 NEJs with 95% CI, 72 hours: 3.12 (2.4;3.7)
  Average phenotype of 25 NEJs with 95% CI, 72 hours: 3.56 (2.7;4.3)
  Activity against NEJs (first screen), in words: None of the three passed the first screen

## CC1(C)CC[C@]2(NC(=O)NCc3ccccc3)CC[C@]3(C)C(=CCC4[C@@]5(C)CCC6OC(C)(C)OC[C@@]6(C)C5CC[C@]43C)C2C1 (stereo partly drawn) [MC017, 1-Benzyl-3-((4aR,6aR,6bS,8aS,14bR)-2,2,4a,6a,6b,11,11,14b-octamethyl-4a,5,6,6a,6b,7,8,9,10,11,12,12a,14,14a,14b,15,16,16a-octadecahydro-4H-piceno[3,4-d][1,3]dioxin-8a(4bH)-yl)urea]
  Average motility of 25 NEJs with 95% CI, 24 hours: 4.12 (3.7;4.5)
  Average phenotype of 25 NEJs with 95% CI, 24 hours: 3.28 (2.5;4)
  Average motility of 25 NEJs with 95% CI, 48 hours: 4.0 (3.5; 4.4)
  Average phenotype of 25 NEJs with 95% CI, 48 hours: 4.04 (3.3;4.6)
  Average motility of 25 NEJs with 95% CI, 72 hours: 3.92 (3.3; 4.4)
  Average phenotype of 25 NEJs with 95% CI, 72 hours: 4.12 (3.4;4.7)

## CCCCOC(=O)N[C@]12CCC(C)(C)CC1C1=CCC3[C@@]4(C)CCC5OC(C)(C)OC[C@@]5(C)C4CC[C@@]3(C)[C@]1(C)CC2 (stereo partly drawn) [MC019, Butyl ((4aR,6aR,6bS,8aS,14bR)-2,2,4a,6a,6b,11,11,14b-octamethyl-4a,5,6,6a,6b,7,8,9,10, 11,12,12a,14, 14a,14b,15,16,16a-octadecahydro-4H-piceno[3,4-d][1,3]dioxin-8a(4bH)-yl)carbamate]
  Average motility of 25 NEJs with 95% CI, 24 hours: 2.24 (1.7;2.7)
  Average phenotype of 25 NEJs with 95% CI, 24 hours: 2.40 (1.8;2.9)
  Average motility of 25 NEJs with 95% CI, 48 hours: 4.00 (3.7;4.2)
  Average phenotype of 25 NEJs with 95% CI, 48 hours: 3.20 (2.6;3.7)
  Average motility of 25 NEJs with 95% CI, 72 hours: 4.36 (3.9;4.7)
  Average phenotype of 25 NEJs with 95% CI, 72 hours: 3.40 (2.7;4)
  Activity against NEJs (first screen), in words: inactive against NEJs

## CCCNC(=O)N[C@]12CCC(C)(C)CC1C1=CCC3[C@@]4(C)CCC5OC(C)(C)OC[C@@]5(C)C4CC[C@@]3(C)[C@]1(C)CC2 (stereo partly drawn) [MC022, 1-((4aR,6aR,6bS,8aS,14bR)-2,2,4a,6a,6b,11,11,14b-Octamethyl-4a,5,6,6a,6b,7,8,9,10,11, 12,12a,14,14a, 14b,15,16,16a-octadecahydro-4H-piceno[3,4-d][1,3]dioxin-8a(4bH)-yl)-3-propylurea]
  Average motility of 25 NEJs with 95% CI, 24 hours: 2.68 (1.9;3.4)
  Average phenotype of 25 NEJs with 95% CI, 24 hours: 4.60 (4.2;4.9)
  Average motility of 25 NEJs with 95% CI, 48 hours: 4.12 (3.7;4.4)
  Average phenotype of 25 NEJs with 95% CI, 48 hours: 5.08 (4.7;5.4)
  Average motility of 25 NEJs with 95% CI, 72 hours: 4.96 (4.8;5)
  Average phenotype of 25 NEJs with 95% CI, 72 hours: 5.88 (5.6;6.1)
  Activity against NEJs (first screen), in words: inactive against NEJs

## COC(=O)[C@@H](NC(=O)N[C@]12CCC(C)(C)CC1C1=CCC3[C@@]4(C)CCC5OC(C)(C)OC[C@@]5(C)C4CC[C@@]3(C)[C@]1(C)CC2)C(C)C (stereo partly drawn) [MC027, Methyl (((4aR,6aR,6bS,8aS,14bR)-2,2,4a,6a,6b,11,11,14b-octamethyl-4a,5,6,6a,6b,7,8,9,10, 11,12,12a, 14,14a,14b,15,16,16a-octadecahydro-4H-piceno[3,4-d][1,3]dioxin-8a(4bH)-yl)-carbamoyl)-L-valinate]
  Average motility of 25 NEJs with 95% CI, 24 hours: 3.48 (2.9;3.9)
  Average phenotype of 25 NEJs with 95% CI, 24 hours: 3.32 (2.5;4.1)
  Average motility of 25 NEJs with 95% CI, 48 hours: 4.72 (4.4;4.9)
  Average phenotype of 25 NEJs with 95% CI, 48 hours: 4.64 (3.9;5.3)
  Average motility of 25 NEJs with 95% CI, 72 hours: 4.76 (4.4;5)
  Average phenotype of 25 NEJs with 95% CI, 72 hours: 5.48 (4.9;5.9)

## CC1(C)CC[C@]2(NC(=O)N[C@H]3C(O)O[C@H](CO)[C@@H](O)[C@@H]3O)CC[C@]3(C)C(=CCC4[C@@]5(C)CCC6OC(C)(C)OC[C@@]6(C)C5CC[C@]43C)C2C1 (stereo partly drawn) [MC028, 1-((4aR,6aR,6bS,8aS,14bR)-2,2,4a,6a,6b,11,11,14b-Octamethyl-4a,5,6,6a,6b,7,8,9,10,11, 12,12a,14,14a, 14b,15,16,16a-octadecahydro-4H-piceno[3,4-d][1,3]dioxin-8a(4bH)-yl)-3-((3R,4R,5S,6R)-2,4,5-tri-hydroxy-6-(hydroxymethyl)tetrahydro-2H-pyran-3-yl)urea]
  Average motility of 25 NEJs with 95% CI, 24 hours: 2.32 (1.8;2.7)
  Average phenotype of 25 NEJs with 95% CI, 24 hours: 2.24 (1.6;2.8)
  Average motility of 25 NEJs with 95% CI, 48 hours: 3.52 (2.9;4)
  Average phenotype of 25 NEJs with 95% CI, 48 hours: 2.76 (2;3.4)
  Average motility of 25 NEJs with 95% CI, 72 hours: 2.60 (1.9;3.2)
  Average phenotype of 25 NEJs with 95% CI, 72 hours: 2.72 (2;3.4)
  Activity against NEJs (first screen), in words: none reached the level required

## CC1(C)CC[C@]2(NC(=O)N[C@H]3C(O)O[C@H](CO)[C@@H](O)[C@@H]3O)CC[C@]3(C)C(=CCC4[C@@]5(C)CC[C@H](O)[C@@](C)(CO)C5CC[C@]43C)C2C1 (stereo partly drawn) [MC030, 1-((4aS,6aS,6bR,9R,10S,12aR)-10-Hydroxy-9-(hydroxymethyl)-2,2,6a,6b,9,12a-hexa-methyl-1,3,4,5,6,6a,6b,7,8,8a,9,10,11,12,12a,12b,13,14b-octadecahydropicen-4a(2H)-yl)-3-((3R,4R,5S,6R)-2,4,5-tri-hydroxy-6-(hydroxymethyl)tetrahydro-2H-pyran-3-yl)urea]
  Average motility of 25 NEJs with 95% CI, 24 hours: 3.20 (2.6;3.7)
  Average phenotype of 25 NEJs with 95% CI, 24 hours: 3.00 (2.2;3.7)
  Average motility of 25 NEJs with 95% CI, 48 hours: 3.92 (3.5;4.2)
  Average phenotype of 25 NEJs with 95% CI, 48 hours: 3.60 (2.9;4.2)
  Average motility of 25 NEJs with 95% CI, 72 hours: 3.96 (3.4;4.4)
  Average phenotype of 25 NEJs with 95% CI, 72 hours: 4.00 (3.2;4.7)
  Activity against NEJs (first screen), in words: none reached the level required; also recorded: low activity

## CC(=O)OC[C@]12CCC(C)(C)CC1C1=CCC3[C@@]4(C)CCC5OC(C)(C)OC[C@@]5(C)C4CC[C@@]3(C)[C@]1(C)CC2 (stereo partly drawn) [MC031, ((4aR,6aR,6bS,8aS,14bR)-2,2,4a,6a,6b,11,11,14b-Octamethyl-4a,5,6,6a,6b,7,8,9,10,11,12,12a,14,14a, 14b,15,16,16a-octadecahydro-4H-piceno[3,4-d][1,3]dioxin-8a(4bH)-yl)methyl acetate]
  Average motility of 25 NEJs with 95% CI, 24 hours: 2.96 (2.4;3.4)
  Average phenotype of 25 NEJs with 95% CI, 24 hours: 2.72 (1.9;3.4)
  Average motility of 25 NEJs with 95% CI, 48 hours: 2.76 (2;3.4)
  Average phenotype of 25 NEJs with 95% CI, 48 hours: 3.64 (2.9;4.3)
  Average motility of 25 NEJs with 95% CI, 72 hours: 3.44 (2.6;4.2)
  Average phenotype of 25 NEJs with 95% CI, 72 hours: 4.80 (4.2;5.3)

## CCCCCCCCCCCCCCCC(=O)OC[C@]12CCC(C)(C)CC1C1=CCC3[C@@]4(C)CCC5OC(C)(C)OC[C@@]5(C)C4CC[C@@]3(C)[C@]1(C)CC2 (stereo partly drawn) [MC032, ((4aR,6aR,6bS,8aS,14bR)-2,2,4a,6a,6b,11,11,14b-Octamethyl-4a,5,6,6a,6b,7,8,9,10,11,12,12a,14,14a, 14b,15,16,16a-octadecahydro-4H-piceno[3,4-d][1,3]dioxin-8a(4bH)-yl)methyl palmitate]
  Average motility of 25 NEJs with 95% CI, 24 hours: 3.20 (2.6;3.7)
  Average phenotype of 25 NEJs with 95% CI, 24 hours: 2.52 (1.7;3.3)
  Average motility of 25 NEJs with 95% CI, 48 hours: 3.12 (2.5;3.6)
  Average phenotype of 25 NEJs with 95% CI, 48 hours: 2.64 (1.8;3.4)
  Average motility of 25 NEJs with 95% CI, 72 hours: 3.12 (2.5;3.7)
  Average phenotype of 25 NEJs with 95% CI, 72 hours: 2.80 (2;3.5)

## CC1(C)CC[C@]2(NC(=O)N3CCC[C@H]3C(=O)O)CC[C@]3(C)C(=CCC4[C@@]5(C)CCC6OC(C)(C)OC[C@@]6(C)C5CC[C@]43C)C2C1 (stereo partly drawn) [MC033, (((4aR,6aR,6bS,8aS,14bR)-2,2,4a,6a,6b,11,11,14b-Octamethyl-4a,5,6,6a,6b,7,8,9,10,11,12,12a,14,14a, 14b,15,16,16a-octadecahydro-4H-piceno[3,4-d][1,3]dioxin-8a(4bH)-yl)carbam-oyl)-L-proline]
  Average motility of 25 NEJs with 95% CI, 24 hours: 3.80 (3.4;4.1)
  Average phenotype of 25 NEJs with 95% CI, 24 hours: 3.28 (2.7;3.8)
  Average motility of 25 NEJs with 95% CI, 48 hours: 3.88 (3.5;4.2)
  Average phenotype of 25 NEJs with 95% CI, 48 hours: 3.44 (2.8;4)
  Average motility of 25 NEJs with 95% CI, 72 hours: 3.76 (3.2;4.2)
  Average phenotype of 25 NEJs with 95% CI, 72 hours: 4.04 (3.3;4.6)
